Assay [1] deals with T1, calcium sensing receptor as found in the human parathyroid gland (Homo sapiens, UniProt P41180).
T1 construct: expressed in transfected cells; host or cells: HEK 293
T1 sequence (P41180 20-1078): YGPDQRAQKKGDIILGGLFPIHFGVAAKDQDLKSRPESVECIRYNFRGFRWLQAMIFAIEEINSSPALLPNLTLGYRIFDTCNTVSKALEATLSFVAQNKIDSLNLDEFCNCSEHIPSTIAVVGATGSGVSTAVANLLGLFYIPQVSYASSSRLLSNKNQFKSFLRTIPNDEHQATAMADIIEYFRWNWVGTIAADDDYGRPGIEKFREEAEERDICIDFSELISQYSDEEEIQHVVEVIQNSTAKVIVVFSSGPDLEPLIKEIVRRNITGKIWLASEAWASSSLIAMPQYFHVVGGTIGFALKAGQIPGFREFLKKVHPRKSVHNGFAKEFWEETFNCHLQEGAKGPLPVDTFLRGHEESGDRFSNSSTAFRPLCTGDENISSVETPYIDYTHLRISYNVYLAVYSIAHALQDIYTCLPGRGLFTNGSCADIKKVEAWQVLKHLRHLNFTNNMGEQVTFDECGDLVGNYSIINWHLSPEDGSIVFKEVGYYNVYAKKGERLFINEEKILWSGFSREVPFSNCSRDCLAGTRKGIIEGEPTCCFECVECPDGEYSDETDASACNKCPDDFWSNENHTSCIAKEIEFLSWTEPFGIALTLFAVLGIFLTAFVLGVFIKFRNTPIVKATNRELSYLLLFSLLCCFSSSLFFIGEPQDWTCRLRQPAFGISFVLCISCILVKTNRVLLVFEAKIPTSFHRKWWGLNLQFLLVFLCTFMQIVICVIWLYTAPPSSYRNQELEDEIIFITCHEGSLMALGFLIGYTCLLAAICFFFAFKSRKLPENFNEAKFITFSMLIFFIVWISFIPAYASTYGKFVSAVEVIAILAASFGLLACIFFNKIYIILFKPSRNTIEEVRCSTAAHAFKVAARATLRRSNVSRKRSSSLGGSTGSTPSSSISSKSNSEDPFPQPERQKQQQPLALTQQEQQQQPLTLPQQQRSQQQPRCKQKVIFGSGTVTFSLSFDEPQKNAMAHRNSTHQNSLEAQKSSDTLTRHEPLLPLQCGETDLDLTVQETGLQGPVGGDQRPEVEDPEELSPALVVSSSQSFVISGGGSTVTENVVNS
Briefly: calcium mobilization fluorescence (FLIPR) assay, agonist mode. Type of assay: cell-based. The settings on record: transfected HEK 293 cells; 1 mM calcium standard; Tables 2-7; read-out: In Vitro: CS50, where potency is at 50% of the calcium standard potency. The procedure:
(§1) In vitro potency is measured via calcium mobilization in a fluorescence assay using HEK 293 cells transfected to express the same calcium sensing receptor as found in the human parathyroid gland. In this assay calcium-sensing receptor agonists and antagonists are detected. The assay is conducted in a 96-well plate format with the use of FLIPR (fluorescent imaging plate reader; Molecular Devices, Sunnyvale, Calif.). The HEK 293 cell media is replaced with the fluorescence dye FLUO-3AM and Pluronic detergent in FLIPR assay buffer. Cells are incubated 60 min (in the dark, at room temperature), then washed with assay buffer and placed in FLIPR. Images are collected by FLIPR in the absence of test compound, then in the presence of test compound (at 25 µM) and then after addition of a calcium challenge (at 1 mM). In the agonist assay the difference between maximum and minimum fluorescence values is measured following test compound addition. Hits have a change in fluorescence greater than or equal to 50% of that seen with a 1 mM calcium standard. In the antagonist assay the difference between maximum and minimum fluorescence values is measured following the calcium challenge addition. When compared to challenge in the absence of test compound, hits reduce fluorescence by at least 50%. In vivo activity is measured via parathyroid hormone (PTH) supression by test compounds in a rat model. Compound is administered orally using 0.5% Tween 80 in distilled water as vehicle, with a volume of approximately 10 mL/kg body weight. Blood samples are taken at 15 minutes (and 4 h if required) post oral dosing. Serum PTH levels are determined with an immunoradiometric assay.
(§2) Not all compounds were tested in each of the screens. […] Each entry represents a mixture of cis and trans cyclopropanes (R,S; S,R; R,R; S,S) with R absolute configuration when R^3=CH3. Table 2 lists compounds that are trans at the cyclopropane (R,R; S,S) with R absolute configuration at the benzylamine position, or without stereochemistry at the benzylamine. Table 3 lists compounds with R,R absolute stereochemistry at the cyclopropane and a mixture of stereochemistry at the benzylamine position. 20. In vitro data in Table 1 is percent activation of the calcium-sensing receptor versus baseline. In vitro data in Tables 2-7 is expressed as a CS50, where potency is at 50% of the calcium standard potency, and the unit is μM. In vivo data represents % blood serum PTH vs. vehicle at 30 mg/kg test compound, levels measured after 15 minutes.
In general terms: A change in cytosolic calcium serves as a functional read-out for many receptors and channels.

The subject of assay [2] is parathyroid hormone (PTH). Briefly: parathyroid hormone (PTH) suppression in a rat model. The class given is in vivo. To be noted: 30 mg/kg test compound, levels measured after 15 minutes; for change in vivo at 30 mg/kg: Rattus norvegicus, po, 0.25 h, read-out: In Vivo: % blood serum PTH vs. vehicle; for In Vivo: % blood serum PTH vs. vehicle: oral, 30 mg/kg. The protocol: as §1, §2

From patent US6172091A, “1,2-Disubstituted cyclopropanes” (Ortho-McNeil Pharmaceutical, Inc., priority 1999, dated 2001) come the findings set out here.

For `COc1cccc([C@@H](C)NCC2CC2c2cccs2)c1` (stereo partly shown) [Compound 25], the EC50 in assay [1] is 7.1 µM. The change in vivo at 30 mg/kg in assay [2] is -89%.

For `COc1cccc([C@@H](C)NC[C@H]2C[C@@H]2c2ccccc2)c1` [Compound 60], the EC50 in assay [1] turned out to be 12.9 µM. In addition, the change in vivo at 30 mg/kg in assay [2] is -42.1%.

`COc1cccc([C@@H](C)NC[C@H]2C[C@@H]2c2cccc(F)c2)c1` [Compound 71]: in assay [2], the change in vivo at 30 mg/kg is -78.7%.

On to `COc1cccc([C@@H](C)NCC2CC2c2ccc(C(F)(F)F)cc2)c1` (stereo partly shown) [Compound 16], for which the EC50 in assay [1] was greater than 25 µM. For the same molecule, the change in vivo at 30 mg/kg in assay [2] was -14.4%.

With `COc1cccc([C@@H](C)NCC2CC2c2ccc([N+](=O)[O-])cc2[N+](=O)[O-])c1` (stereo partly shown) [Compound 34], in assay [1], the EC50 was greater than 25 µM.

As for `COc1cccc([C@@H](C)NCC2CC2c2ccc(F)cc2)c1` (stereo partly shown) [Compound 23], in assay [1], the EC50 turned out to be 13.5 µM. The change in vivo at 30 mg/kg in assay [2] was -55%.

`COc1cccc([C@@H](C)NCC2CC2c2ccsc2)c1` (stereo partly shown) [Compound 26]: the EC50 in assay [1] is 3.4 µM.

Take `CC(NC[C@@H]1C[C@H]1c1ccccc1)c1cccc(F)c1` (stereo partly shown) [Compound 45]: in assay [1], the EC50 is greater than 25 µM. Besides, the change in vivo at 30 mg/kg in assay [2] is -19.6%.

With `COc1cccc([C@H](C)NC[C@H]2C[C@@H]2c2cccc(F)c2)c1` [Compound 75], the change in vivo at 30 mg/kg in assay [2] was -0.9%.

As for `COc1cccc([C@@H](C)NCC2CC2c2ccncc2)c1` (stereo partly shown) [Compound 11], the EC50 in assay [1] was greater than 25 µM.

Consider `COc1cccc([C@@H](C)NCC2CC2c2ccccc2)c1` (stereo partly shown) [Compound 3], for which the change in vivo at 30 mg/kg in assay [2] was -62.1%.

Turning to `CCc1cccc(C(C)NC[C@@H]2C[C@H]2c2ccccc2)c1` (stereo partly shown) [Compound 42], the EC50 in assay [1] was greater than 25 µM. In addition, the change in vivo at 30 mg/kg in assay [2] is -78.9%.

As to `COc1cccc([C@H](C)NC[C@H]2C[C@@H]2c2ccccc2)c1` [Compound 64], the EC50 in assay [1] is greater than 25 µM. For the same molecule, in assay [2], the change in vivo at 30 mg/kg was -11.7%.

Take `c1ccc([C@@H]2C[C@H]2CNCc2ccncc2)cc1` (relative stereo) [Compound 30]: the EC50 in assay [1] was greater than 25 µM. Moreover, in assay [2], the change in vivo at 30 mg/kg was determined as 70.1%.

As for `CC(NC[C@@H]1C[C@H]1c1ccccc1)c1cccc(C(F)(F)F)c1` (stereo partly shown) [Compound 41], in assay [1], the EC50 was greater than 25 µM. Further, in assay [2], the change in vivo at 30 mg/kg was -21.4%.

With `COc1cccc([C@H](C)NC[C@@H]2C[C@H]2c2cccc(F)c2)c1` [Compound 76], the change in vivo at 30 mg/kg in assay [2] came out at 16.8%.

As for `CCOc1cccc([C@@H](C)NC[C@@H]2C[C@H]2c2ccccc2)c1` [Compound 50, N-((R,R)-2-phenylcyclopropanylmethyl)-1-(R)-(3-ethoxyphenyl)ethylamine], the EC50 in assay [1] was 11.9 µM. In assay [2], the change in vivo at 30 mg/kg was -57%.

Consider `C[C@@H](NC[C@@H]1C[C@H]1c1ccccc1)c1cccc(OC2CCCC2)c1` [Compound 52], for which, in assay [1], the EC50 is 12.2 µM. In addition, the change in vivo at 30 mg/kg in assay [2] was determined as 26.6%.

Consider `CCC(NC[C@@H]1C[C@H]1c1ccccc1)c1cccc(OC)c1` (stereo partly drawn) [Compound 43, N-((R,R)-2-phenylcyclopropanylmethyl)-1-(3-methoxyphenyl)propylamine], for which, in assay [1], the EC50 is greater than 25 µM. In addition, the change in vivo at 30 mg/kg in assay [2] is -6.3%.

As to `COc1cccc(CNC[C@@H]2C[C@H]2c2ccccc2)c1` (relative stereo) [Compound 31], the EC50 in assay [1] was greater than 25 µM. Moreover, in assay [2], the change in vivo at 30 mg/kg is -26.5%.

In the case of `COc1cccc([C@@H](C)NCC2CC2c2cccnc2)c1` (stereo partly shown) [Compound 10], the EC50 in assay [1] amounted to 37.1 µM.

For `COc1cccc([C@@H](C)NCC2CC2c2sccc2C)c1` (stereo partly shown) [Compound 38], the change in vivo at 30 mg/kg in assay [2] is -51%.

Consider `COc1cccc([C@@H](C)NCC2CC2c2c(F)cccc2F)c1` (stereo partly shown) [Compound 24], for which the EC50 in assay [1] amounted to 11.9 µM. Moreover, in assay [2], the change in vivo at 30 mg/kg was -85.4%.

`COc1cccc([C@H](C)NCC2CC2c2cccc(F)c2)c1` (stereo partly shown) [Compound 78]: the “In Vivo: % blood serum PTH vs. vehicle” value in assay [2] is reported as “+21.4%”.

With `CC(C)Oc1cccc([C@@H](C)NC[C@@H]2C[C@H]2c2ccccc2)c1` [Compound 51], in assay [1], the EC50 was greater than 25 µM. In addition, the change in vivo at 30 mg/kg in assay [2] is -7.3%.

For the molecule `COc1cccc([C@@H](C)NC[C@@H]2C[C@H]2c2ccccc2)c1` [Compound 49, N-((R,R)-2-phenylcyclopropanylmethyl)-1-(R)-(3-methoxyphenyl)ethylamine], the EC50 in assay [1] amounted to 5 µM. Moreover, in assay [2], the change in vivo at 30 mg/kg was -83.6%.

For `COc1cccc([C@@H](C)NCC2CC2c2cc(Br)cs2)c1` (stereo partly shown) [Compound 37], the change in vivo at 30 mg/kg in assay [2] was -24.8%.

In the case of `COc1cccc([C@@H](C)NCC2CC2c2cc(C)ccc2C)c1` (stereo partly shown) [Compound 32], the EC50 in assay [1] came out at 12.4 µM. Also, the “In Vivo: % blood serum PTH vs. vehicle” value in assay [2] was -13.5%.

In the case of `COc1cccc([C@@H](C)N(C[C@@H]2C[C@H]2c2ccccc2)C(C)=O)c1` [Compound 53], the EC50 in assay [1] was greater than 25 µM. The change in vivo at 30 mg/kg in assay [2] is -6.4%.

Consider `COc1cccc([C@@H](C)NCC2CC2c2ccccn2)c1` (stereo partly shown) [Compound 9], for which the EC50 in assay [1] worked out at 6.5 µM.

Take `COc1cccc([C@@H](C)NCC2CC2c2cccn2C)c1` (stereo partly shown) [Compound 27]: in assay [1], the EC50 came to 7.8 µM.

On to `COc1cccc([C@@H](C)NCC2CC2c2cc(C)ccc2C)c1` (stereo partly shown) [Compound 1], for which, in assay [2], the “In Vivo: % blood serum PTH vs. vehicle” value was “+31.4%”.

Consider `COc1cccc([C@@H](C)NCC2CC2c2cccc(F)c2)c1` (stereo partly shown) [Compound 74], for which the “In Vivo: % blood serum PTH vs. vehicle” value in assay [2] is -2.6%.

Take `COc1cccc([C@@H](C)NCC2CC2c2ccc(Cl)cc2)c1` (stereo partly shown) [Compound 6]: the change in vivo at 30 mg/kg in assay [2] was -9.3%.

Regarding `COc1cccc([C@H](C)NCC2CC2c2cccc(F)c2)c1` (stereo partly shown) [Compound 77], the “In Vivo: % blood serum PTH vs. vehicle” value in assay [2] is reported as “+2.1%”.

As to `COc1cccc([C@@H](C)NCC2CC2c2cccc(F)c2)c1` (stereo partly shown) [Compound 73], the “In Vivo: % blood serum PTH vs. vehicle” value in assay [2] was -52.5%.

For the molecule `COc1cccc([C@@H](C)NCC2CC2c2ccccc2Cl)c1` (stereo partly shown) [Compound 4], the change in vivo at 30 mg/kg in assay [2] is -11.9%.

As to `CC(NC[C@@H]1C[C@H]1c1ccccc1)c1cccc(OC(F)(F)F)c1` (stereo partly shown) [Compound 39], the change in vivo at 30 mg/kg in assay [2] was found to be 0%.

On to `COc1cccc([C@@H](C)NCC2CC2c2ccc(Cl)s2)c1` (stereo partly shown) [Compound 35], for which the change in vivo at 30 mg/kg in assay [2] was -15.4%.

Take `COc1cccc([C@@H](C)NC[C@H]2C[C@@H]2c2cccc(F)c2)c1` [Compound 21]: in assay [1], the EC50 stood at 10.9 µM.

As for `COc1cccc([C@@H](C)N(C[C@@H]2C[C@H]2c2ccccc2)C(=O)C(C)(C)C)c1` [Compound 55], in assay [1], the EC50 is greater than 25 µM.

As to `COc1cccc([C@@H](C)NC[C@@H]2C[C@H]2c2cccc(F)c2)c1` [Compound 72], in assay [2], the “In Vivo: % blood serum PTH vs. vehicle” value is -93.4%.

For `COc1cccc([C@@H](C)NCC2CC2c2ccc(C)s2)c1` (stereo partly shown) [Compound 36], the change in vivo at 30 mg/kg in assay [2] is -34.2%.
